Test results taken from patent US10065965B2, “Imidazo[1,2-B][1,2,4]triazine derivatives as antiparasitic agents” (GlaxoSmithKline Intellectual Property Development Limited, priority 2015, dated 2018).

Assay: Assay 6 Trypanosoma cruzi intracellular assay, cytotoxicity against H9c2 cells
Type: cell-based
Conditions: rat, H9C2 cardiomyocytes infected with T. cruzi trypomastigotes, total number of H9C2 cells, minimum threshold 4.3, read-out: cytotoxicity against H9c2 cells, pEC50 (converted)
Procedure: Compounds were dispensed into black 384-well assay plates (Greiner) by acoustic dispensing (LabCyte ECHO). For potency determinations, eleven-point, one in three dilution curves were generated, with a top concentration of 50 μM. H9C2 rat cardiomyocytes cells were dispensed in T225 tissue culture flasks and after 4 hours they were infected during 18 hours with T. cruzi trypomastigotes in the same T225 tissue culture flasks at a multiplicity of infection of 1. Next, any remaining free trypomastigotes were washed away with PBS and the infected H9C2 cells were harvested by trypsinisation. The infected H9C2 cells were then plated into 384-well plates containing the compounds to be tested, at 2500 cells per well in DMEM media with 2% FBS, 1% Penicillin/Streptomocin, 2 mM L-Glutamine, 1 mM Na Pyruvate and 25 mM HEPES. After 72 h incubation at 37° C. in presence of 5% CO2, the plates were fixed and stained with 4% formaldehyde and 2 μM Draq5 for 3 hours at room temperature. The plates were imaged on a Perkin Elmer Opera high-content imaging system using a 20× air objective. Images were analysed using the Acapella building blocks system (Perkin Elmer). The image analysis algorithm first identified the H9C2 nuclei followed by demarcation of the cytoplasm and identification of intracellular amastigotes. This algorithm reported mean number of parasites per H9C2 cell, the percentage of infected H9C2 cells and the total number of H9C2 cells.

O=C(Nc1ccc(F)c(-c2cn3nc(N4CCOCC4)cnc3n2)c1)N1CCCC1 [Example 1, N-(4-fluoro-3-(2-morpholinoimidazo[1,2-b][1,2,4]triazin-6-yl)phenyl)pyrrolidine-1-carboxamide]
EC50 at 72 h: > 50.1 µM
